How the values were obtained:
Assay in all cases: MTT cell proliferation assay
Format in all cases: cell-based
[1] = system: 3T3 cells; details: Mus musculus, NIH3T3, approximately 64-72 hours incubation, read-out: MTT Assay IC50, 3T3
Procedure, shortened: (§1)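 5,000-10,000 cells/well, overnight attach; 8 conc., 1 nM–30 μM; MTT ~4 h; formazan solubilized, OD 490 nm; % inhibition = (1−(ODo/OD))×100 vs neg. control; mostly duplicate, mean±SE.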

[2] = system: MS751 cells; details: Homo sapiens, MS751, MS751 cells; approximately 64-72 hours incubation; read-out: MTT Assay IC50, MS-751
Procedure, shortened: as §1

[3] = system: Z138 cells; details: Homo sapiens, Z-138, Z138 cells; approximately 64-72 hours incubation; read-out: MTT Assay IC50, Z-138
Procedure, shortened: as §1

Which results are given for `Nc1ccc(/C=C/C(=O)NCc2cc3cc(-c4ccc(CN5CCC(F)(F)CC5)cn4)cc(C(F)(F)F)c3o2)cn1` [Compound 675, (E)-3-(6-aminopyridin-3-yl)-N-((5-(5-((4,4-difluoropiperidin-1-yl)methyl)pyridin-2-yl)-7-(trifluoromethyl)benzofuran-2-yl)methyl)acrylamide]?
IC50 [1]: > 10 µM; IC50 [2]: > 10 µM; IC50 [3]: > 10 µM

With `Nc1ccc(/C=C/C(=O)NCc2cc3cc(-c4ccc(C(=O)N5CCC(F)(F)CC5)cn4)cc(C(F)(F)F)c3o2)cc1F` [Compound 676, (E)-3-(4-amino-3-fluorophenyl)-N-((5-(5-(4,4-difluoropiperidine-1-carbonyl)pyridin-2-yl)-7-(trifluoromethyl)benzofuran-2-yl)methyl)acrylamide] as the compound, how does the IC50 [1] read?
The IC50 was greater than 10 µM.

What about the IC50 [2] of the same compound?
The IC50 was greater than 10 µM.

What about the IC50 [3] of the same compound?
Its IC50 is greater than 10 µM.

How did the IC50 [1] turn out when `Cc1c(CNC(=O)/C=C/c2ccc(N)nc2)oc2c(C(F)(F)F)cc(-c3ccc(C(=O)N4CCC(F)(F)CC4)cn3)cc12` [Compound 677, (E)-3-(6-aminopyridin-3-yl)-N-((5-(5-(4,4-difluoropiperidine-1-carbonyl)pyridin-2-yl)-3-methyl-7-(trifluoromethyl)benzofuran-2-yl)methyl)acrylamide] was run?
The IC50 was greater than 10 µM.

What about the IC50 [2] of the same compound?
The IC50 was greater than 10 µM.

And the IC50 [3]?
The IC50 was greater than 10 µM.

How did the IC50 [1] turn out when `Nc1ccc(/C=C/C(=S)NCc2cc3cc(-c4ccc(C(=S)N5CCC(F)(F)CC5)cn4)cc(C(F)(F)F)c3o2)cn1` [Compound 678, (E)-3-(6-aminopyridin-3-yl)-N-((5-(5-(4,4-difluoropiperidine-1-carbonothioyl)pyridin-2-yl)-7-(trifluoromethyl)benzofuran-2-yl)methyl)prop-2-enethioamide] was run?
The IC50 was greater than 10 µM.

And the IC50 [2]?
Its IC50 is 0.1 to 5 µM.

What about the IC50 [3] of the same compound?
Its IC50 is 0.1 to 5 µM.

Which results are given for `Nc1ccc(/C=C/C(=O)NCc2cc3cc(-c4ccc(S(=O)(=O)N5CCC(F)(F)CC5)cc4)cc(C(F)(F)F)c3o2)cn1` [Compound 679, (E)-3-(6-aminopyridin-3-yl)-N-((5-(4-((4,4-difluoropiperidin-1-yl)sulfonyl)phenyl)-7-(trifluoromethyl)benzofuran-2-yl)methyl)acrylamide]?
IC50 [1]: 0.1 to 5 µM; IC50 [2]: 0.1 to 5 µM; IC50 [3]: 0.1 to 5 µM

With `O=C(/C=C/c1cccnc1)NCc1cc2cc(-c3ccc(S(=O)(=O)N4CCC(F)(F)CC4)cc3)cc(C(F)(F)F)c2o1` [Compound 680, (E)-N-((5-(4-((4,4-difluoropiperidin-1-yl)sulfonyl)phenyl)-7-(trifluoromethyl)benzofuran-2-yl)methyl)-3-(pyridin-3-yl)acrylamide] as the compound, how does the IC50 [1] read?
Its IC50 is greater than 10 µM.

What about the IC50 [2] of the same compound?
Its IC50 is 0.1 to 5 µM.

And the IC50 [3]?
The IC50 was 0.1 to 5 µM.

For `Nc1ccc(/C=C/C(=O)NCc2cc3cc(-c4ccc(C(=O)N5CCC(F)(F)CC5)cn4)c(F)c(F)c3o2)cn1` [Compound 681, (E)-3-(6-aminopyridin-3-yl)-N-((5-(5-(4,4-difluoropiperidine-1-carbonyl)pyridin-2-yl)-6,7-difluorobenzofuran-2-yl)methyl)acrylamide], which IC50 [1] is on record?
Its IC50 is greater than 10 µM.

What about the IC50 [2] of the same compound?
Its IC50 is greater than 10 µM.

What about the IC50 [3] of the same compound?
Its IC50 is 5 to 10 µM.

For `O=C(/C=C/c1cccnc1)NCc1cc2cc(-c3ccc(C(=O)N4CCC(F)(F)CC4)cc3)cc(C(F)(F)F)c2o1` [Compound 682, (E)-N-((5-(4-(4,4-difluoropiperidine-1-carbonyl)phenyl)-7-(trifluoromethyl)benzofuran-2-yl)methyl)-3-(pyridin-3-yl)acrylamide], which IC50 [1] is on record?
The IC50 was 0.1 to 5 µM.

What about the IC50 [2] of the same compound?
The IC50 was 0.1 to 5 µM.

What about the IC50 [3] of the same compound?
The IC50 was 0.1 to 5 µM.

For `Nc1ccc(/C=C/C(=O)NCc2cc3cc(-c4ccc(C(=O)N5CCC(F)(F)CC5)cc4F)cc(C(F)(F)F)c3o2)cn1` [Compound 683, (E)-3-(6-aminopyridin-3-yl)-N-((5-(4-(4,4-difluoropiperidine-1-carbonyl)-2-fluorophenyl)-7-(trifluoromethyl)benzofuran-2-yl)methyl)acrylamide], which IC50 [1] is on record?
The IC50 was greater than 10 µM.

And the IC50 [2]?
Its IC50 is 0.1 to 5 µM.

And the IC50 [3]?
The IC50 was 0.1 to 5 µM.

With `O=C(/C=C/c1cccnc1)NCc1cc2cc(-c3ccc(C(=O)N4CCC(F)(F)CC4)cc3F)cc(C(F)(F)F)c2o1` [Compound 684, (E)-N-((5-(4-(4,4-difluoropiperidine-1-carbonyl)-2-fluorophenyl)-7-(trifluoromethyl)benzofuran-2-yl)methyl)-3-(pyridin-3-yl)acrylamide] as the compound, how does the IC50 [1] read?
Its IC50 is greater than 10 µM.

What about the IC50 [2] of the same compound?
The IC50 was 0.1 to 5 µM.

And the IC50 [3]?
Its IC50 is 0.1 to 5 µM.

Which IC50 [1] does the source give for `Nc1ccc(/C=C/C(=O)NCc2cc3cc(-c4ccc(C(=O)N5CCC(F)(F)CC5)s4)cc(C(F)(F)F)c3o2)cn1` [Compound 685, (E)-3-(6-aminopyridin-3-yl)-N-((5-(5-(4,4-difluoropiperidine-1-carbonyl)thiophen-2-yl)-7-(trifluoromethyl)benzofuran-2-yl)methyl)acrylamide] here?
Its IC50 is greater than 10 µM.

What about the IC50 [2] of the same compound?
Its IC50 is 0.1 to 5 µM.

What about the IC50 [3] of the same compound?
The IC50 was 0.1 to 5 µM.

Which results are given for `Nc1ccc(/C=C/C(=O)NCc2cc3cc(-c4ccc(C(=O)N5CCC(F)(F)CC5)cc4)cc(OC(F)(F)F)c3o2)cn1` [Compound 686, (E)-3-(6-aminopyridin-3-yl)-N-((5-(4-(4,4-difluoropiperidine-1-carbonyl)phenyl)-7-(trifluoromethoxy)benzofuran-2-yl)methyl)acrylamide]?
IC50 [1]: > 10 µM; IC50 [2]: 0.1 to 5 µM; IC50 [3]: 0.1 to 5 µM

For `O=C(/C=C/c1cccnc1)NCc1cc2cc(-c3ccc(C(=O)N4CCC(F)(F)CC4)cc3)cc(OC(F)(F)F)c2o1` [Compound 687, (E)-N-((5-(4-(4,4-difluoropiperidine-1-carbonyl)phenyl)-7-(trifluoromethoxy)benzofuran-2-yl)methyl)-3-(pyridin-3-yl)acrylamide], which IC50 [1] is on record?
Its IC50 is 0.1 to 5 µM.

And the IC50 [2]?
The IC50 was less than 0.1 µM.

What about the IC50 [3] of the same compound?
The IC50 was less than 0.1 µM.

With `O=C(/C=C/c1cccnc1)NCc1cc2cc(-c3ccc(C(=O)N4CC5(COC5)C4)cc3)cc(C(F)(F)F)c2o1` [Compound 688, (E)-N-((5-(4-(2-oxa-6-azaspiro[3.3]heptane-6-carbonyl)phenyl)-7-(trifluoromethyl)benzofuran-2-yl)methyl)-3-(pyridin-3-yl)acrylamide] as the compound, how does the IC50 [1] read?
The IC50 was 0.1 to 5 µM.

What about the IC50 [2] of the same compound?
The IC50 was 0.1 to 5 µM.

What about the IC50 [3] of the same compound?
Its IC50 is 0.1 to 5 µM.

Which IC50 [1] does the source give for `O=C(/C=C/c1cccnc1)NCc1cc2cc(-c3ccc(C(=O)N4CC5(COC5)C4)cn3)cc(C(F)(F)F)c2o1` [Compound 689, (E)-N-((5-(5-(2-oxa-6-azaspiro[3.3]heptane-6-carbonyl)pyridin-2-yl)-7-(trifluoromethyl)benzofuran-2-yl)methyl)-3-(pyridin-3-yl)acrylamide] here?
Its IC50 is 0.1 to 5 µM.

And the IC50 [2]?
The IC50 was less than 0.1 µM.

What about the IC50 [3] of the same compound?
The IC50 was less than 0.1 µM.

`Nc1ccc(/C=C/C(=O)NCCc2cc3cc(-c4ccc(C(=O)N5CCC(F)(F)CC5)cn4)cc(C(F)(F)F)c3o2)cn1` [Compound 690, (E)-3-(6-aminopyridin-3-yl)-N-(2-(5-(5-(4,4-difluoropiperidine-1-carbonyl)pyridin-2-yl)-7-(trifluoromethyl)benzofuran-2-yl)ethyl)acrylamide] was tested. Which IC50 [1] did it give?
The IC50 was 0.1 to 5 µM.

And the IC50 [2]?
The IC50 was less than 0.1 µM.

And the IC50 [3]?
The IC50 was less than 0.1 µM.

How did the IC50 [1] turn out when `Nc1ccc(/C=C/C(=O)NCCc2cc3cc(-c4ccc(C(=O)N5CCC(F)(F)CC5)cc4)cc(C(F)(F)F)c3o2)cn1` [Compound 691, (E)-3-(6-aminopyridin-3-yl)-N-(2-(5-(4-(4,4-difluoropiperidine-1-carbonyl)phenyl)-7-(trifluoromethyl)benzofuran-2-yl)ethyl)acrylamide] was run?
The IC50 was 0.1 to 5 µM.

What about the IC50 [2] of the same compound?
Its IC50 is 0.1 to 5 µM.

And the IC50 [3]?
The IC50 was less than 0.1 µM.

For `Nc1ccc(/C=C/C(=O)NCc2cc3cc(-c4ccc(C(F)(F)F)cc4)cc(-c4ccc(F)cc4)c3o2)cn1` [Compound 692, (E)-3-(6-aminopyridin-3-yl)-N-((7-(4-fluorophenyl)-5-(4-(trifluoromethyl)phenyl)benzofuran-2-yl)methyl)acrylamide], which IC50 [1] is on record?
The IC50 was greater than 10 µM.

What about the IC50 [2] of the same compound?
The IC50 was 0.1 to 5 µM.

And the IC50 [3]?
The IC50 was 0.1 to 5 µM.

What does the source list for `CS(=O)(=O)c1ccc(-c2cc(-c3ccc(F)cc3)c3oc(CNC(=O)/C=C/c4ccc(N)nc4)cc3c2)cc1` [Compound 693, (E)-3-(6-aminopyridin-3-yl)-N-((7-(4-fluorophenyl)-5-(4-(methylsulfonyl)phenyl)benzofuran-2-yl)methyl)acrylamide]?
IC50 [1]: 0.1 to 5 µM; IC50 [2]: < 0.1 µM; IC50 [3]: < 0.1 µM

Which IC50 [1] does the source give for `Cc1noc(C)c1-c1cc(-c2ccc(F)cc2)c2oc(CNC(=O)/C=C/c3ccc(N)nc3)cc2c1` [Compound 694, (E)-3-(6-aminopyridin-3-yl)-N-((5-(3,5-dimethylisoxazol-4-yl)-7-(4-fluorophenyl)benzofuran-2-yl)methyl)acrylamide] here?
The IC50 was greater than 10 µM.

And the IC50 [2]?
Its IC50 is 0.1 to 5 µM.

And the IC50 [3]?
The IC50 was less than 0.1 µM.

For `Nc1ccc(/C=C/C(=O)NCc2cc3cc(C4CC4C(=O)N4CCC(F)(F)CC4)cc(C(F)(F)F)c3o2)cn1` (stereo not drawn) [Compound 695, (E)-3-(6-aminopyridin-3-yl)-N-((5-(2-(4,4-difluoropiperidine-1-carbonyl)cyclopropyl)-7-(trifluoromethyl)benzofuran-2-yl)methyl)acrylamide], which IC50 [1] is on record?
The IC50 was greater than 10 µM.

And the IC50 [2]?
Its IC50 is 0.1 to 5 µM.

What about the IC50 [3] of the same compound?
The IC50 was 0.1 to 5 µM.

`Nc1ccc(/C=C/C(=O)NCc2cc3cc(-c4ccc(C(=O)N5CCC(F)(F)CC5)cc4)cc(-c4ccncc4F)c3o2)cn1` [Compound 696, (E)-3-(6-aminopyridin-3-yl)-N-((5-(4-(4,4-difluoropiperidine-1-carbonyl)phenyl)-7-(3-fluoropyridin-4-yl)benzofuran-2-yl)methyl)acrylamide] was tested. Which IC50 [1] did it give?
The IC50 was 0.1 to 5 µM.

What about the IC50 [2] of the same compound?
The IC50 was less than 0.1 µM.

What about the IC50 [3] of the same compound?
Its IC50 is less than 0.1 µM.

Which IC50 [1] does the source give for `Nc1ccc(/C=C/C(=O)NCc2cc3cc(-c4ccc(C(=O)N5CCC(F)(F)CC5)cc4)cc(-c4c(F)cc(F)cc4F)c3o2)cn1` [Compound 697, (E)-3-(6-aminopyridin-3-yl)-N-((5-(4-(4,4-difluoropiperidine-1-carbonyl)phenyl)-7-(2,4,6-trifluorophenyl)benzofuran-2-yl)methyl)acrylamide] here?
Its IC50 is 0.1 to 5 µM.

What about the IC50 [2] of the same compound?
The IC50 was less than 0.1 µM.

What about the IC50 [3] of the same compound?
The IC50 was less than 0.1 µM.

Source: patent US12331040B2 (Karyopharm Therapeutics Inc., priority 2013, dated 2025)
